Measured values as given in US7897358B2, “Canine transient receptor potential V2 (cTRPV2) and methods of screening for TRPV2 channel modulators” (Janssen Pharmaceutica N.V., priority 2007, dated 2011).

Assays:
canine TRPV2 (cTRPV2) = experiment: Calcium influx functional assay (FLIPR) in HEK293 cells transiently transfected with cTRPV2; type: cell-based; conditions: recombinant cTRPV2-expressing host cells
Protocol: The expression construct, cTRPV2/pcDNA3.1 was then transfected into human embryonic kidney cells (HEK293, ATCC CRL-1573) with FuGene6 transfection reagent (Roche, Indianapolis, Ind.), according to the vendor's protocol. TRPV2-expressing HEK293 cells were cultured in DMEM supplemented with 10% fetal bovine serum, 100 units/ml penicillin and 100 μg/ml streptomycin at 37° C. with 5% CO2, and were analyzed using a calcium influx assay 48-72 hr. post-transfection.
Transiently transfected cells were seeded in 384-well plates at a density of 1×10^4 cells/well and incubated overnight at 37° C. The following day, the cells were loaded with buffer and calcium dye, as recommended by the vendor (Molecular Devices, Sunnyvale, Calif.), in a final volume of 40 μl and incubated for 30 minutes at room temperature. The fluorescence intensity was measured by FLIPR before, during and after the addition of Δ^9-THC, which was added to the cells at a final concentration of 100 μM.

human TRPV2 = biological target: T1, human TRPV2 (Homo sapiens, UniProt Q9Y5S1); conditions: cited from earlier work
T1 sequence (Q9Y5S1 1-764): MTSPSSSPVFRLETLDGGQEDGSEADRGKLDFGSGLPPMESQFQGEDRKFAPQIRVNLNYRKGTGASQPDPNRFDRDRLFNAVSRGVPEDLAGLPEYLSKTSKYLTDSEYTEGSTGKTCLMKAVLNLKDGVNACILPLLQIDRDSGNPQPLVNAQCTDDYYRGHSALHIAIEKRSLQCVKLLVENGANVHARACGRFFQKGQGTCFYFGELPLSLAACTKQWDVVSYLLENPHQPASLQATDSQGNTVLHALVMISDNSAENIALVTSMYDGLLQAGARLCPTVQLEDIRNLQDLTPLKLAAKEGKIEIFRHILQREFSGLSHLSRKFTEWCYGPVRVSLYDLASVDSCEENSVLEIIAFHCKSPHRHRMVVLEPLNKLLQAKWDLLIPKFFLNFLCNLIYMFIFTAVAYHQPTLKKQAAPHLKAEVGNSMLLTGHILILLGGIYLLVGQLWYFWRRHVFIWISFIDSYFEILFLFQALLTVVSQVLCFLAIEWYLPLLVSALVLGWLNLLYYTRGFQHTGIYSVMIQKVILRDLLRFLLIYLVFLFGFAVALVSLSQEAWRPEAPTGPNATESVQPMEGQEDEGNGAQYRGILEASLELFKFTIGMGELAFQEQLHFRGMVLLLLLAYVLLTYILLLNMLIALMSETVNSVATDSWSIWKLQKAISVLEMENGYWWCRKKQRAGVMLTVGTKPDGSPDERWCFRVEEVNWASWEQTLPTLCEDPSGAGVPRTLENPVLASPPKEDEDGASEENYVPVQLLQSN

rat TRPV2 = biological target: T2, rat TRPV2 (Rattus norvegicus, UniProt Q9WUD2); conditions: cited from earlier work
T2 sequence (Q9WUD2 1-761): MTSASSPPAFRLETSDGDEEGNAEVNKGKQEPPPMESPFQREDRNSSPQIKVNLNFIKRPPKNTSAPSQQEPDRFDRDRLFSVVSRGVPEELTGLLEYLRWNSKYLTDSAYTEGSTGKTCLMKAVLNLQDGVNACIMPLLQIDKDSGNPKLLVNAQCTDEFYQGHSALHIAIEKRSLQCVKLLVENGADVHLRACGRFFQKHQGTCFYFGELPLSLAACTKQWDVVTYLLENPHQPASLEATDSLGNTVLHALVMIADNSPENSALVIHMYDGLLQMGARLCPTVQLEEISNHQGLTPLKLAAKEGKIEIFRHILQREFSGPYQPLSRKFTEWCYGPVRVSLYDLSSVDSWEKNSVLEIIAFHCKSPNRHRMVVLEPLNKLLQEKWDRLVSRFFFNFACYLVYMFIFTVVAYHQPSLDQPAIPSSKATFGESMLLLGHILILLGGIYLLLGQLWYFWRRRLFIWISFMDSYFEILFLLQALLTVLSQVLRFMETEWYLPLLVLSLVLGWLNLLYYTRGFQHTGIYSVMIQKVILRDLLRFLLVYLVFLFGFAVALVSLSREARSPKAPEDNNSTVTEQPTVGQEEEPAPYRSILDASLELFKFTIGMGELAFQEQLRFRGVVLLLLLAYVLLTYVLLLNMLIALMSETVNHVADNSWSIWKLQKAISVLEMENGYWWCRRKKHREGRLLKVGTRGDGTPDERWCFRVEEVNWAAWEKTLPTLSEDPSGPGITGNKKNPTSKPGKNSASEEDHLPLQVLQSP

mouse TRPV2 = biological target: T3, mouse TRPV2 (Mus musculus, UniProt Q9WTR1); conditions: cited from earlier work
T3 sequence (Q9WTR1 1-756): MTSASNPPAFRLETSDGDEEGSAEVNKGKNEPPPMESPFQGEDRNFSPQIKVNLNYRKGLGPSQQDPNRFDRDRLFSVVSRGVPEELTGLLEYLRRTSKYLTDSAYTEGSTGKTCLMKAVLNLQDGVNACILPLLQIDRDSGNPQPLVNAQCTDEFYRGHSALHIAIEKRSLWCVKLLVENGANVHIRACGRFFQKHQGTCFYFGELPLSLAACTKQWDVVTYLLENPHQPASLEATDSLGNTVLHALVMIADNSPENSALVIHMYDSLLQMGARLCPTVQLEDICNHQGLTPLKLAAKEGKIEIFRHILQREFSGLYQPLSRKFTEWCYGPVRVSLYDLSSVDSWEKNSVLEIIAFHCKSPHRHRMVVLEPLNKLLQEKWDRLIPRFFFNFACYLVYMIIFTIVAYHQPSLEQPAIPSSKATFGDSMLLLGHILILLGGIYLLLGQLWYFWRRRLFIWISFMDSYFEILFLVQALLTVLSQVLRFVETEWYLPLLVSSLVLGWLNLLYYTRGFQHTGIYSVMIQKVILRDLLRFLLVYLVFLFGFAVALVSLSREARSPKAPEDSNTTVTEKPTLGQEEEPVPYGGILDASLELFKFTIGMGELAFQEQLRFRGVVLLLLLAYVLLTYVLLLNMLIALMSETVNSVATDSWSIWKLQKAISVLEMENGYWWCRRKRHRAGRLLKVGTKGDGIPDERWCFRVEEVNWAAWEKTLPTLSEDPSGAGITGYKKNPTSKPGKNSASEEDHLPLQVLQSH

Structure (SMILES): CCCCCc1cc(O)c2c(c1)OC(C)(C)[C@@H]1CCC(C)=C[C@@H]21 [Δ^9-THC, Δ^9-tetrahydrocannabinol]
- response of the recombinant TRPV2 cell system to agonist (canine TRPV2 (cTRPV2)): responded to Δ^9-THC in a dose-dependent manner
- activation of human TRPV2 (selective agonist) (human TRPV2): activate
- activation of rat TRPV2 (selective agonist) (rat TRPV2): activate
- activation of mouse TRPV2 (selective agonist) (mouse TRPV2): activate
